Marks after values point to notes of the source that are not given here.
Experiments:
human SGLT1 = human SGLT1 (Homo sapiens (Human), UniProt P13866); assay: Inhibition test of sodium-dependent glucose uptake in CHO-K1 cells stably expressing human SGLT1; format: cell-based; details: [14C]methyl α-D-glucopyranoside uptake, 37° C., 30 minutes, read-out: IC50 for hSGLT1
Description: (1) Creation of CHO-K1 Cells Stably Expressing Human SGLT1
(§1) A plasmid vector expressing human SGLT1 protein was transfected into CHO-K1 cells using Lipofectamine 2000 (Invitrogen). The cells were cultured in the presence of 500 μg/mL geneticin to select resistant strains, followed by screening in the system shown below using sugar uptake capacity as an indicator to obtain SGLT1-expressing cells.
(§2) (3) Inhibition Test of Sodium-Dependent Glucose Uptake in Stable Expression Cells
(§3) The stably expressing cells prepared above were used in the following test.
(§4) Pretreatment buffer (140 mM choline chloride, 2 mM KCl, 1 mM CaCl2, 1 mM MgCl2, 10 mM HEPES/5 mM Tris, pH 7.4) was added to the stably expressing cells, followed by incubation for 20 minutes. The pretreatment buffer was removed and replaced by uptake buffer containing a test compound (1 mM methyl α-D-glucopyranoside (containing [^14C]methyl α-D-glucopyranoside), 145 mM NaCl, 2 mM KCl, 1 mM CaCl2, 1 mM MgCl2, 10 mM HEPES/5 mM Tris, pH 7.4). Uptake reaction was performed at 37° C. for 30 minutes (SGLT1) or 60 minutes (SGLT2). […] A liquid scintillator (Perkin Elmer) was added and mixed well, followed by measurement of radioactivity using a β-ray analyzer. […]

human SGLT2 = human SGLT2 (Homo sapiens (Human), UniProt P31639); assay: Inhibition test of sodium-dependent glucose uptake in CHO-K1 cells stably expressing human SGLT2; format: cell-based; details: [14C]methyl α-D-glucopyranoside uptake, 37° C., 60 minutes, read-out: IC50 for hSGLT2
Description: (2) Creation of CHO-K1 Cells Stably Expressing Human SGLT2
as §1, with “SGLT2” for “SGLT1”, “LTX” for “2000”, “1000” for “500”, “SGLT2-expressing” for “SGLT1-expressing”
as §2, §3, §4

[1] = Renal concentrations after repeated oral administration for 3 days; format: in vivo, SD/IGS rats
Description: (2) Renal Concentrations of the Compound (I) of the Present Invention After Repeated Oral Administration for 3 Days
SD/IGS rats at 7 weeks of age (male, non-fasting, Charles River Laboratories Japan Inc.) were orally administered once a day for 3 consecutive days with the compound (I) (3 mg/kg) prepared in a 0.5% aqueous solution of CMC. At 48 hours after the final drug administration, the rats were exsanguinated via the postcaval vein under isoflurane anesthesia, and their kidneys were excised after they were confirmed to be euthanized. After the tissue surface was washed with physiological saline, each tissue was measured for its weight and homogenized in 4 volumes of purified water under ice cooling. The drug concentration in each homogenate was determined in the same manner as shown in Test Example 2(1) by LC-MS/MS using compound 11 as an internal standard substance.

[2] = system: streptozotocin diabetic model rats; assay: Oral glucose tolerance test (hypoglycemic effect) in streptozotocin diabetic model rats; format: in vivo, SD/IGS rats; details: for STZ rats OGTT % inhibition ΔAUC0-1h (mg/dl) @ 1 mg/kg/po: STZ-induced diabetic rats versus vehicle control, oral dose 1 mg/kg, glucose 2 g/kg
Description: (§5) Test Example 3 Confirmation study of hypoglycemic effect in streptozotocin diabetic model rats
(§6) (1) Preparation of Diabetic Model Rats
(§7) SD/IGS rats at 7 weeks of age (male, Charles River Laboratories Japan Inc.) were fasted for about 16 hours and then injected with 50 mg/kg streptozotocin (STZ) via the caudal vein under ether anesthesia to prepare diabetic model rats. Similarly, another group of SD/IGS rats at 7 weeks of age was injected with 1.25 mmol/L citric acid in physiological saline (1 mL/kg) via the caudal vein under ether anesthesia to prepare normal control rats. At one week after injection of STZ or 1.25 mmol/L citric acid in physiological saline, the rats (8 weeks old) were provided for an oral glucose tolerance test.
(§8) (2) Oral Glucose Tolerance Test
(§9) […] At 5 minutes after drug administration, a glucose solution (2 g/kg) was orally administered to each rat, and the blood was collected at a total of 5 time points: before drug administration (0 time), and at 0.25, 0.5, 1 and 2 hours after the oral administration.
(§10) Blood was collected from the caudal veins of the rats under ether anesthesia with the use of a heparin-coated blood collecting tube and centrifuged, whereafter blood plasma was separated. Plasma glucose concentrations were quantified by measurement with a Glucose CII-Test Wako (Wako Pure Chemical Industries, Ltd., Japan). To determine the intensity of hypoglycemic effect, the blood glucose level before drug administration was subtracted from each blood glucose level measured until one hour after oral administration in each drug group, and the resulting values were analyzed by the trapezoidal method to calculate an increment in the area under the curve for glucose (ΔAUC), which was expressed as a decrease relative to ΔAUC of the control group.

[3] = Renal concentrations until one week after single oral administration; format: in vivo, SD/IGS rats; details: male Sprague-Dawley rats
Description: (1) Changes in Renal Concentrations of Compounds 4, 10, 11 and 33 Disclosed in WO2007/136116 Until One Week After Oral Administration
SD/IGS rats at 7 weeks of age (male, non-fasting, Charles River Laboratories Japan Inc.) were orally administered with compound 4, 10 or 33 (1 mg/kg each) or compound 11 (0.3 mg/kg) prepared in a 0.5% aqueous solution of CMC. At 24, 72 and 168 hours after drug administration, the rats were exsanguinated via the postcaval vein under ether anesthesia, and their kidneys were excised after they were confirmed to be euthanized. After the tissue surface was washed with physiological saline, each tissue was measured for its weight and homogenized in 4 volumes of purified water under ice cooling. To each homogenate, an acetonitrile/methanol solution containing an internal standard substance was added to remove proteins, and the supernatant was then subjected to LC-MS/MS (Applied Biosystems API3000). Drug-derived ions generated by electrospray ionization in positive ion mode were detected by selective reaction monitoring. The peak area of the resulting extracted ion chromatogram was analyzed by the internal standard method to calculate the drug concentration in the homogenate.
As the internal standard material for compounds 10 and 33, (1S)-1,5-anhydro-1-[5-(4-ethoxybenzyl)-2-methoxy-4-methylphenyl]-1-thio-D-glucitol,ethyl-D5 was used. As the internal standard materials for compounds 4 and 11, compound 11 and deuterium-labeled compound 11 (trishydroxymethyl-D6; —C(CD2OH)3), respectively, were used.

[4] = Oral glucose tolerance test (hypoglycemic effect) in streptozotocin diabetic model rats; format: in vivo, SD/IGS rats; details: OGTT using Sprague-Dawley rats, not STZ rats; oral dose 1 mg/kg
Description: as §5, §6, §7, §8, §9, §10

Sequence of human SGLT2 (P31639 whole entry): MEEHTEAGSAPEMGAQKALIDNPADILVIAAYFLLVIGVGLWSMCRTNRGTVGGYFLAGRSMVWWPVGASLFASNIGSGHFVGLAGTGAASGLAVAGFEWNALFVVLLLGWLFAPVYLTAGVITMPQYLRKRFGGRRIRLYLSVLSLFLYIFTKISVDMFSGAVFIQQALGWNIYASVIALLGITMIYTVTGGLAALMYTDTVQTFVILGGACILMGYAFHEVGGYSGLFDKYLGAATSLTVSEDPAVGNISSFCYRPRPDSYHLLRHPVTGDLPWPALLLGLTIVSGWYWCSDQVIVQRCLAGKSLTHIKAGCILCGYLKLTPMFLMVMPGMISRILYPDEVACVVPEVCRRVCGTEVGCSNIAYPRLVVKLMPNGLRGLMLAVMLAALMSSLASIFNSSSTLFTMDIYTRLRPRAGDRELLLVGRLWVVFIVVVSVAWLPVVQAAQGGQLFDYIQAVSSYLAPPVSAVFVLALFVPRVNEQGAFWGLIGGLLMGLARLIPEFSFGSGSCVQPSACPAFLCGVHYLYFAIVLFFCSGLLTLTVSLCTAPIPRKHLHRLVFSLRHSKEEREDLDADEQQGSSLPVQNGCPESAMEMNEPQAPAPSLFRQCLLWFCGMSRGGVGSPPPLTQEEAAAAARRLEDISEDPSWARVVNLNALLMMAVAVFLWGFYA
Sequence of human SGLT1 (P13866 whole entry): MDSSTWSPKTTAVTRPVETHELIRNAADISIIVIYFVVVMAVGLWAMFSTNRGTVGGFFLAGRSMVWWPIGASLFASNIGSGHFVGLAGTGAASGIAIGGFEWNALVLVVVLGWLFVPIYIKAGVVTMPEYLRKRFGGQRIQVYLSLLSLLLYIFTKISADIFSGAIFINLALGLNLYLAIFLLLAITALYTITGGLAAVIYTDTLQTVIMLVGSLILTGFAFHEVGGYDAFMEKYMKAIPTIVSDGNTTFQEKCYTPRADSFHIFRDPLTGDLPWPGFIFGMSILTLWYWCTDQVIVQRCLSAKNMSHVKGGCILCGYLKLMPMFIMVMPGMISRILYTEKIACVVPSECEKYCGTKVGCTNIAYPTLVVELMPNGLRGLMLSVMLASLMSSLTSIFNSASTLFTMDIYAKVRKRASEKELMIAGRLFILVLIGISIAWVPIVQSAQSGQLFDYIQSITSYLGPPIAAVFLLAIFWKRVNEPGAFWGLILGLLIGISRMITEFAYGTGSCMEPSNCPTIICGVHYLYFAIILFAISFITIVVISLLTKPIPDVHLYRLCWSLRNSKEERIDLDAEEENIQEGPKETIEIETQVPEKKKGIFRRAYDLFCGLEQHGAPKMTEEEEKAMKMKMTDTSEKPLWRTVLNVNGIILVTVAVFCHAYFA

COc1cc(C(C)C)c(Cc2ccc(/C=C/C(C)(C)C(=O)NC(C)(C)C(N)=O)cc2C)cc1[C@@H]1O[C@H](CO)[C@@H](O)[C@H](O)[C@H]1O [Compound (I)]
IC50 (human SGLT1): 65 nM | IC50 (human SGLT2): 554 nM | remaining in the kidney (in words) ([1]; 3 mg/kg for 3 consecutive days, at subsequent day 2): did not remain in the kidney | Concentration of compounds in kidney after 3 days continuous oral administration, After 2 days ([1]; 3 mg/kg po once a day for 3 days, male Sprague-Dawley rats, 48 hours after final administration, limit of detection 5 ng/g): ND^# (ND (not determined) means limit of detection (5 ng/g).) | hypoglycemic action (in words) ([2]; glucose tolerance test, compound of the invention): potent hypoglycemic action

Cc1cc(O)c([C@@H]2O[C@H](CO)[C@@H](O)[C@H](O)[C@H]2O)cc1Cc1ccc(CCCC(=O)NC(C)(C)C(N)=O)cc1 [compound 4]
Concentration of compounds in kidney after single oral administration, After 1 day ([3]; 1 mg/kg po, 1 day (24 hours)): 68.4 ± 7.49 ng/g | Concentration of compounds in kidney after single oral administration, After 3 days ([3]; 1 mg/kg po, 3 days (72 hours)): 85.5 ± 23.1 ng/g | Concentration of compounds in kidney after single oral administration, After 7 days ([3]; 1 mg/kg po, 7 days (168 hours)): 76.3 ± 15.5 ng/g | STZ rats OGTT % inhibition ΔAUC0-1h (mg/dl) @ 1 mg/kg/po [2]: 51%

Cc1cc(O)c([C@@H]2O[C@H](CO)[C@@H](O)[C@H](O)[C@H]2O)cc1Cc1ccc(CCNC(=O)NC(C)(C)CO)cc1 [compound 10]
Concentration of compounds in kidney after single oral administration, After 1 day ([3]; 1 mg/kg po, 1 day (24 hours)): 167 ± 36.3 ng/g | Concentration of compounds in kidney after single oral administration, After 3 days ([3]; 1 mg/kg po, 3 days (72 hours)): 124 ± 12.2 ng/g | Concentration of compounds in kidney after single oral administration, After 7 days ([3]; 1 mg/kg po, 7 days (168 hours)): 53.8 ± 7.6 ng/g | STZ rats OGTT % inhibition ΔAUC0-1h (mg/dl) @ 1 mg/kg/po [2]: 69%

Cc1cc(O)c([C@@H]2O[C@H](CO)[C@@H](O)[C@H](O)[C@H]2O)cc1Cc1ccc(CCNC(=O)NC(CO)(CO)CO)cc1 [compound 11]
Concentration of compounds in kidney after single oral administration, After 1 day ([3]; 0.3 mg/kg po (footnote *), 1 day, mean ± S.D.): 63.5 ± 20.1* ng/g | Concentration of compounds in kidney after single oral administration, After 3 days ([3]; 0.3 mg/kg po (footnote *), 3 days, mean ± S.D.): 67.3 ± 3.15* ng/g | Concentration of compounds in kidney after single oral administration, After 7 days ([3]; 0.3 mg/kg po (footnote *), 7 days, mean ± S.D.): 48.7 ± 18.3* ng/g | STZ rats OGTT % inhibition ΔAUC0-1h (mg/dl) @ 1 mg/kg/po [2]: 68%

Cc1cc(O)c([C@@H]2O[C@H](CO)[C@@H](O)[C@H](O)[C@H]2O)cc1Cc1ccc(CCNC(=O)NC2CCN(Cc3ccccc3)CC2)cc1 [compound 33]
Concentration of compounds in kidney after single oral administration, After 1 day ([3]; 1 mg/kg po, 1 day (24 hours)): 29.8 ± 6.79 ng/g | Concentration of compounds in kidney after single oral administration, After 3 days ([3]; 1 mg/kg po, 3 days (72 hours)): 25.5 ± 8.68 ng/g | Concentration of compounds in kidney after single oral administration, After 7 days ([3]; 1 mg/kg po, 7 days (168 hours)): 16.2 ± 3.11 ng/g | OGTT % inhibition ΔAUC0-1h (mg/dl) @ 1 mg/kg/po [4]: 81^# %
